For orientation: pIC50 means −log10 of the IC50, conventionally taken in molar units.

pIC50: −log10 of the molar value.

The first assay addresses T1, purified human 15-lipoxygenase (Homo sapiens, UniProt P16050).
T1 sequence (P16050 1-662): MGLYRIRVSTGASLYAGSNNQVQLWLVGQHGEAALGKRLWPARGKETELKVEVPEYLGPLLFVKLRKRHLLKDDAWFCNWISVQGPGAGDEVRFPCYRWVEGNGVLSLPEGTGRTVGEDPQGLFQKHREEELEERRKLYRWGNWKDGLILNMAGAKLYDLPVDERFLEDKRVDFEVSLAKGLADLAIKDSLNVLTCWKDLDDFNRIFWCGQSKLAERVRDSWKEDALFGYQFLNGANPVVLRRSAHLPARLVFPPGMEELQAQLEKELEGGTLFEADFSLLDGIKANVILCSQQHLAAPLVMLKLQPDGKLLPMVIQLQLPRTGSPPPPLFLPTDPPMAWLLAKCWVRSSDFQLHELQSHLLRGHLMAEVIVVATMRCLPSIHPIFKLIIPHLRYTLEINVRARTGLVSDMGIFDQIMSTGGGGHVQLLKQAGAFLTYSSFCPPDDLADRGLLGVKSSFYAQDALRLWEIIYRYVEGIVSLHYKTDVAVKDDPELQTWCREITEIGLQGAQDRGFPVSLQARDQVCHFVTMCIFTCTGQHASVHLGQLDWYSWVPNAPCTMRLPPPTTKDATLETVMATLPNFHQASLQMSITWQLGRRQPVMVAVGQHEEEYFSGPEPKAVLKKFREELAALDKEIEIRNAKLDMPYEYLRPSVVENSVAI
The assay can be described thus: 15-lipoxygenase inhibition assay (arachidonic acid oxidation, HPLC readout).
Details: not given
It counts as biochemical. How it is done:
The assay employed takes advantage of the ability of lipoxygenases to oxidize polyunsaturated fatty acids, containing a 1,4-cis-pentadiene configuration, to their corresponding hydroperoxy or hydroxyl derivatives. In this particular assay, the lipoxygenase was a purified human 15-lipoxygenase and the fatty acid was arachidonic acid. The assay is performed at room temperature (20-22° C.) and the following are added to each well in a 96-well microtiter plate:
a) 35 μL phosphate buffered saline (PBS) (pH 7.4);
b) inhibitor (i.e. compound) or vehicle (0.5 μl DMSO);
c) 10 μL of a 10× concentrated solution of 15-lipoxygenase in PBS. The plates are incubated for 5 minutes at room temperature;
The plate is then incubated for 10 minutes at room temperature;
e) the enzymatic reaction is terminated by the addition of 100 μl methanol; and
f) the amount of 15-hydroperoxy-eicosatetraenoic acid or 15-hydroxy-eicosatetraenoic acid is measured by reverse phase HPLC.
`O=C(Nc1ccc2ccccc2n1)c1cc[nH]n1` [Example 2, Pyrazole-3-carboxylic acid quinolin-2-ylamide]: the pIC50 was 6.48.

The assay is the same for the next values; noted with them: arachidonic acid substrate, room temperature, PBS pH 7.4; read-out: IC50.
Regarding `O=C(Nc1cccc2c1OC(F)(F)O2)c1cc[nH]n1` [Example 60, Pyrazole-3-carboxylic acid (2,3-(difluoromethylenedioxy)phenyl)amide], the pIC50 is 6.41.

On to `O=C(Nc1ccnc2ccc(Br)cc12)c1cc[nH]n1` [Example 63, Pyrazole-3-carboxylic acid (6-bromoquinolin-4-yl)amide], for which the pIC50 was 6.17. On to `CCOC(=O)c1c(NC(=O)c2cc[nH]n2)sc2c1CCCC2` [Example 56, 2-[(Pyrazole-3-carbonyl)amino]-4,5,6,7-tetrahydrobenzo[b]thiophene-3-carboxylic acid ethyl ester], for which the pIC50 was 7.12. `O=C(Nc1cccc2cccnc12)c1cc[nH]n1` [Example 59, Pyrazole-3-carboxylic acid quinolin-8-ylamide]: the pIC50 was 6.33.

With `Cc1cc(C(=O)Nc2cccc3ncccc23)n[nH]1` [Example 7, 5-Methylpyrazole-3-carboxylic acid quinolin-5-ylamide], the pIC50 was 6.38. Same read-out and setting: with `O=C(Nc1cccc2[nH]ccc12)c1cc(Cl)[nH]n1` [Example 48, 5-Chloropyrazole-3-carboxylic acid indol-4-ylamide] the figure was 6.68.
